In patent US8623911B2, “Boron-containing small molecules as anti-protozoal agent” (Anacor Pharmaceuticals, Inc., priority 2010, dated 2014):
Read-outs that look alike come from different tables or passages of the source.

Tests used:
[1] = Pharmacokinetic studies in mice (plasma and brain, IV and oral gavage); format: in vivo, male CD-1 mice; details: for AUC(0-t) / clearance / AUC(0-inf) / Vd / CL/F / half-life: male, CD-1, mouse; for AUC(0-t): read-out: Exposure/trapezoid AUC0-last; for clearance: read-out: Clearance Cl (converted); for AUC(0-inf): read-out: Exposure/trapezoid AUC0-inf; for Vd: read-out: Vdss; for CL/F: read-out: Oral Clearance Cl/F (converted); for half-life: read-out: t½ (converted); for Cmax: mouse, male CD-1 mice
Procedure: Male CD-1 mice weighing approximately 20 to 30 g received the test article M1 by either intravenous (IV) or oral gavage (OG) routes. Animals in the IV group (11 animals, 1 per time point) received a single bolus injection at a nominal dose level of 2 mg/kg of the test article. Animals receiving oral doses were administered the test article as a single OG dose (10 animals per dose level, 1 per time point) at nominal dose levels of 25 and 50 mg/kg. IV doses were administered as a solution in 5% (w/v) dextrose in sterile water for injection. OG doses at 25 and 50 mg/kg were administered as suspensions in 5% (w/v) dextrose in sterile water for injection and as in situ sodium salts in 5% (m/v) dextrose: 2% (v/v) ethanol in DWI, respectively. All dose solutions were delivered at 4 mL/kg. Animals receiving the IV dose at 2 mg/kg or the OG dose at 25 mg/kg were not fasted. Animals receiving the OG dose at 50 mg/kg were fasted for 4 hours before dosing and for 1 hour after dosing. Blood and brain tissue were collected from 1 animal/timepoint/group at 0.17, 0.5, 1, 2, 3, 4, 6, 8, 12, 18 and 24 hr after IV dosing, and at 0.5, 1, 2, 3, 4, 6, 8, 12, 18 and 24 hr after OG dosing. Whole blood samples were processed completely to plasma following collection. Plasma and brain tissue were submitted to bioanalysis to determine pharmacokinetic parameters and test article CNS disposition. Plasma and brain tissue from non-dosed animals were collected to serve as surrogate pre-dose samples. Bioanalysis for test article in plasma and brain tissue was performed by HPLC with tandem mass spectrometry (LC-MSMS). Plasma samples were treated with 4 volumes of 0.5% formic acid in methanol to precipitate plasma proteins. Treated samples were centrifuged and supernatants removed for analysis. Brain tissues were massed and homogenized mechanically in the presence of 1 volume of phosphate-buffered saline (PBS). The resulting tissue homogenates were then diluted with a further volume of PBS, and then treated in the same manner as plasma. Extracted samples were assayed for test article by means of LC-MSMS employing reversed-phase chromatography coupled to a triple quadrupole mass spectrometer employing electrospray ionization in the positive ion mode. The analytical column was a Phenomenex Luna 3μ C8 50×2 mm, with an online sample purification step performed on a Phenomenex Synergi 4μ Polar RP 50×2 mm column. Test articles were eluted using a binary mobile phase gradient comprising 5 mM Ammonium Acetate: 0.1% formic acid in either MeOH or H2O. Non-compartmental analysis of plasma test article concentration versus time was performed in Microsoft Excel to generate pharmacokinetic parameters including: area under the curve (AUC), clearance (as Cl or Cl/F), volume of distribution (Vdss), half-life (t½), and bioavailability (F).

[2] = system: MDCK-MDR1 cells; assay: in vitro; format: in vitro ADME, canine; details: 3 μM test compound
Procedure: (§1) MDCK-MDR1 cells (Madin-Darby canine kidney cells transfected with the human MDR1 gene) (Dr. Piet Borst, NKI-AVL, Amsterdam, The Netherlands) were seeded at 300,000 cells per well onto microporous, polycarbonate membranes in 12 well Costar Transwell® plates (Corning, Corning, N.Y.). The medium was removed and replaced with fresh cell culture medium approximately 24 hours after plating. Cells attained confluency and were ready for use in the transport assay after 72 hours of incubation.
(§2) A stock solution of each compound was prepared in DMSO at a concentration of 10 mg/mL. Stock solutions were further diluted in DMSO to a concentration of 1 mM for use in the assay. The final assay concentration of test compound in each incubation mixture was 3 μM and the final concentration of DMSO was 0.3%.
(§3) Cell cultures were pre-incubated with Transport Medium (TM), consisting of Hanks Balanced Salt Solution (HBSS), 25 mM glucose, and 25 mM HEPES, with and without the known P-gp inhibitor GF120918 (2 μM final assay concentration), for 30-60 minutes prior to the addition of test and control compounds. Following the pre-incubation period, transepithelial electrical resistance (TEER) measurements were taken on each insert to insure the integrity of the monolayer. The range for TEER values was 45-85Ω·cm^2. Transport medium was removed. Fresh transport media (1.5 mL) with or without GF120918 was added to the basolateral chambers. Solutions of the test compound were diluted into TM and added to the appropriate wells in triplicate (400 μL/well) at a final concentration of 3 μM with and without GF120918. The final concentration of DMSO was 0.3%. Control compounds were tested in triplicate at a final concentration of 3 μM. Cell monolayers were incubated with shaking (160 rpm) at 37° C. with 5% CO2 in a humidified incubator for one hour. Following the incubation, all plates were removed from the incubator. Inserts were removed from the plates and TEER measurements were again taken on each insert prior to removing samples for analysis to ensure no degradation of the tight junctions during the assay. An aliquot was taken from each receiver and diluted 1:3 with organic solvent (methanol) to assess transport of each compound across the monolayer. An aliquot was taken from each donor and diluted 1:2 with organic solvent (methanol) and then again 1:50 with matrix (50% methanol/50% TM) to assess mass balance within the study. All samples were assayed for test compound concentrations by LC-MS/MS using electrospray ionization.

[3] = system: P-gp (human MDR1); assay: in vitro; format: in vitro ADME, canine; details: dog, MDCK-MDR1; 3 μM test compound; without GF120918; read-out: MDCK-MCR1 Papp
Procedure: as §1, §2, §3

[4] = oral delivery to mice, 25 and 50 mg/kg

O=C(Nc1ccc2c(c1)B(O)OCC2)c1ccc(F)cc1C(F)(F)F [M1, 4-Fluoro-N-(1-hydroxy-3,4-dihydro-1H-benzo[c][1,2]oxaborinin-7-yl)-2-trifluoromethyl-benzamide]
period brain concentrations are maintained above the MIC ([1]; OG dosing at 25 mg/kg): approximately 5 hours
period brain concentrations are maintained above the MIC ([1]; OG dosing at 50 mg/kg): ~10 h
AUC(0-t) ([1]; brain, IV 2 mg/kg, last = 12 hours): 700 ng·h/mL
clearance ([1]; brain, IV 2 mg/kg): 42.3 mL/min/kg
AUC(0-inf) ([1]; brain, IV 2 mg/kg): 890 ng·h/mL
Vd ([1]; brain, IV 2 mg/kg): 17.1 L/kg
AUC(0-t) ([1]; brain, oral 25 mg/kg, last = 12 hours): 14300 ng·h/mL
AUC(0-inf) ([1]; brain, oral 25 mg/kg): 14400 ng·h/mL
CL/F ([1]; brain, oral 25 mg/kg): 29.2 mL/min/kg
AUC(0-t) ([1]; brain, oral 50 mg/kg, last = 12 hours): 22900 ng·h/mL
AUC(0-inf) ([1]; brain, oral 50 mg/kg): 24700 ng·h/mL
CL/F ([1]; brain, oral 50 mg/kg): 36.5 mL/min/kg
AUC(0-t) ([1]; plasma, IV 2 mg/kg, last = 24 hours): 1580 ng·h/mL
clearance ([1]; plasma, IV 2 mg/kg): 27.8 mL/min/kg
AUC(0-inf) ([1]; plasma, IV 2 mg/kg): 1610 ng·h/mL
Vd ([1]; plasma, IV 2 mg/kg): 5 L/kg
half-life ([1]; plasma, IV 2 mg/kg): 6.88 h
AUC(0-t) ([1]; plasma, oral 25 mg/kg, last = 24 hours): 6390 ng·h/mL
AUC(0-inf) ([1]; plasma, oral 25 mg/kg): 6460 ng·h/mL
CL/F ([1]; plasma, oral 25 mg/kg): 64.5 mL/min/kg
half-life ([1]; plasma, oral 25 mg/kg): 5.29 h
AUC(0-t) ([1]; plasma, oral 50 mg/kg, last = 24 hours): 81400 ng·h/mL
AUC(0-inf) ([1]; plasma, oral 50 mg/kg): 83400 ng·h/mL
CL/F ([1]; plasma, oral 50 mg/kg): 10.2 mL/min/kg
Cmax ([1]; brain, oral 25 mg/kg): 5840 ng/mL
Cmax ([1]; brain, oral 50 mg/kg): 4210 ng/mL
Cmax ([1]; plasma, oral 25 mg/kg): 2230 ng/mL
Cmax ([1]; plasma, oral 50 mg/kg): 13400 ng/mL
dose proportionality of brain exposure [1, 4]: approximately proportional
dose proportionality of plasma exposure [1, 4]: superproportional increase
period for which brain:plasma ratio is greater than unity ([1]; oral dose of 25 mg/kg): approximately 4 hours
brain:plasma ratio ([1]; oral dose of 25 mg/kg, for approximately 4 hours following dosing): greater than unity
F (% of IV) ([1]; plasma, oral 25 mg/kg): 43.2 % of IV
MDCK-MCR1 AQ [2]: −0.02
Papp at 1 h, 3 µM [3]: 55.7 ×10⁻⁶ cm/s
